Data as given in ChEMBL document CHEMBL3871295, “N-Propargylpiperidines with naphthalene-2-carboxamide or naphthalene-2-sulfonamide moieties: Potential multifunctional anti-Alzheimer's agents” (Bioorg Med Chem, 2017).
Activity calls are given as the source filed them. The rule behind the calls is not given here.

Assays:
[1] = target: T1, Amine oxidase [flavin-containing] B (Homo sapiens, UniProt P27338); assay: biochemical; format: cell-based
T1 sequence (P27338 whole entry): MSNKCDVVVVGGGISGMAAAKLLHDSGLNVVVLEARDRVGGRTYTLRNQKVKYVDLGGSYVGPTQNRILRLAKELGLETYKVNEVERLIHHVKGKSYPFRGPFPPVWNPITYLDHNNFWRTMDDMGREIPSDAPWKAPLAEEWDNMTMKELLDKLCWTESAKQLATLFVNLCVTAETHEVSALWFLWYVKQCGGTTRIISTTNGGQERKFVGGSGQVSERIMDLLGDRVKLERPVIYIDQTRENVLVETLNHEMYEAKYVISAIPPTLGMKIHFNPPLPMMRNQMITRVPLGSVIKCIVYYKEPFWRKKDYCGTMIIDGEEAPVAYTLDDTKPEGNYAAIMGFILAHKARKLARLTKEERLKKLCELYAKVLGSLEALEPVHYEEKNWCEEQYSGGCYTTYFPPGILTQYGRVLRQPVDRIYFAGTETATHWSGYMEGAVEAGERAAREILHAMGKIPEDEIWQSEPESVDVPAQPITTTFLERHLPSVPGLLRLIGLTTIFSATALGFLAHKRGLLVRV

Homo sapiens = species on record: Homo sapiens; assay: Selectivity ratio of IC50 for human recombinant microsomal MAO-A expressed in baculovirus-infected insect cells to IC50 for human recombinant microsomal MAO-B expressed in baculovirus-infected insect cells
[2] = target: Amyloid-beta precursor protein (Homo sapiens) (UniProt P05067); assay: Inhibition of HFIP-pretreated recombinant human amyloid beta (1 to 42) self-induced aggregation at 10 uM measured after 20 hrs for every 300 secs by thioflavin-T based fluorometric assay relative to control
Cholinesterase = Cholinesterase (Homo sapiens, UniProt P06276)
Acetylcholinesterase = target: T2, Acetylcholinesterase (Mus musculus, UniProt P21836)
T2 sequence (P21836 whole entry): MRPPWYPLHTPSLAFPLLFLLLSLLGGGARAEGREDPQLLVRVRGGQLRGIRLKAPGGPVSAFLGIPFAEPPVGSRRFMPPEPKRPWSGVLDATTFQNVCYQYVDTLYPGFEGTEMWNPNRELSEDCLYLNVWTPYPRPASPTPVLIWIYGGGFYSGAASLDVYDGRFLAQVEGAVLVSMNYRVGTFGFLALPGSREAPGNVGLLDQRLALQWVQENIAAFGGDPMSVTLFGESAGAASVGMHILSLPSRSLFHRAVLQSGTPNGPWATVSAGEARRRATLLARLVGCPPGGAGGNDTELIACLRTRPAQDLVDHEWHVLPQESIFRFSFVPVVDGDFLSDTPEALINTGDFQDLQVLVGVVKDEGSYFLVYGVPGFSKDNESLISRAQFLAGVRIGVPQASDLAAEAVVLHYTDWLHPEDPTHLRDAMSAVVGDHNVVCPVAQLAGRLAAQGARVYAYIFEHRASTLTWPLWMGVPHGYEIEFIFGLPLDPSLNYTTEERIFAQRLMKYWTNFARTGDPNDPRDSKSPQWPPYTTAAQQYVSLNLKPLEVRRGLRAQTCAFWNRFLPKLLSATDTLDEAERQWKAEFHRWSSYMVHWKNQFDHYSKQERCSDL

[3] = target: T3, Amine oxidase [flavin-containing] A (Homo sapiens, UniProt P21397); assay: biochemical
T3 sequence (P21397 whole entry): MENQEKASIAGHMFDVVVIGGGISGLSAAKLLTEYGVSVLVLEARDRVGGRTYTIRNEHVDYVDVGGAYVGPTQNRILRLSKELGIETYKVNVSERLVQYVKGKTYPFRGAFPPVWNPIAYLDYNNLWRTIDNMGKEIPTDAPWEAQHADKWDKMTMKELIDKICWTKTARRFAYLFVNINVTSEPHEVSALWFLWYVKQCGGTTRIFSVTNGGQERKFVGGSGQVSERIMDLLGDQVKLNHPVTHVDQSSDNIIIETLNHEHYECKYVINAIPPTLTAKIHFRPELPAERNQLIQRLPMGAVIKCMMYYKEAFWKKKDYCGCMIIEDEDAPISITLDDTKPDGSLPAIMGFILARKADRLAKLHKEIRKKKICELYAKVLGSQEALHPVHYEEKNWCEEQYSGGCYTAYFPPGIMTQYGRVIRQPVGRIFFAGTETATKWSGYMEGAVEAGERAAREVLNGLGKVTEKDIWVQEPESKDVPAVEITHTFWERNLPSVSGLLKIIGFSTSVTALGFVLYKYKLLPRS

[4] = PAMPA, pH 7.4
[5] = target: T1, Amine oxidase [flavin-containing] B; assay: Irreversible inhibition of human recombinant microsomal MAO-B expressed in baculovirus-infected insect cells at 10 times IC50 preincubated for 15 mins followed by dilution to […] and subsequent addition of p-tyramine hydrochloride substrate measured for 30 mins by amplex red assay relative to control; conditions: 0.5 h
[6] = target: T1, Amine oxidase [flavin-containing] B; assay: Time-dependent inhibition of human recombinant microsomal MAO-B expressed in baculovirus-infected insect cells preincubated for 5 to 30 mins by IC50 shift assay
[7] = Cytotoxicity against human SH-SY5Y cells at 5 uM measured after 48 hrs by MTS assay; format: toxicity, cell-based
[8] = Cytotoxicity against human SH-SY5Y cells measured after 48 hrs by MTS assay; format: toxicity, cell-based; conditions: read-out: LD50
MAO-B = assay: Selectivity index, ratio of LD50 for cytotoxicity against human SH-SY5Y cells to IC50 for human recombinant microsomal MAO-B expressed in baculovirus-infected insect cells; format: toxicity; conditions: read-out: Ratio LD50/IC50
SH-SY5Y [9] = assay: Neuroprotective activity against amyloid beta (1 to 42) induced cell death in human SH-SY5Y cells assessed as cell viability at 5 uM measured after 48 hrs by MTS assay; format: functional, cell-based
BChE = assay: in vitro; conditions: human, SH-SY5Y cells
[10] = Cytotoxicity against human SH-SY5Y cells at […] measured after 48 hrs by MTS assay; format: toxicity, cell-based
SH-SY5Y [11] = assay: Neuroprotective activity against amyloid beta (1 to 42) induced cell death in human SH-SY5Y cells assessed as cell viability at […] measured after 48 hrs by MTS assay; format: functional, cell-based

Sequence of Cholinesterase (P06276 whole entry): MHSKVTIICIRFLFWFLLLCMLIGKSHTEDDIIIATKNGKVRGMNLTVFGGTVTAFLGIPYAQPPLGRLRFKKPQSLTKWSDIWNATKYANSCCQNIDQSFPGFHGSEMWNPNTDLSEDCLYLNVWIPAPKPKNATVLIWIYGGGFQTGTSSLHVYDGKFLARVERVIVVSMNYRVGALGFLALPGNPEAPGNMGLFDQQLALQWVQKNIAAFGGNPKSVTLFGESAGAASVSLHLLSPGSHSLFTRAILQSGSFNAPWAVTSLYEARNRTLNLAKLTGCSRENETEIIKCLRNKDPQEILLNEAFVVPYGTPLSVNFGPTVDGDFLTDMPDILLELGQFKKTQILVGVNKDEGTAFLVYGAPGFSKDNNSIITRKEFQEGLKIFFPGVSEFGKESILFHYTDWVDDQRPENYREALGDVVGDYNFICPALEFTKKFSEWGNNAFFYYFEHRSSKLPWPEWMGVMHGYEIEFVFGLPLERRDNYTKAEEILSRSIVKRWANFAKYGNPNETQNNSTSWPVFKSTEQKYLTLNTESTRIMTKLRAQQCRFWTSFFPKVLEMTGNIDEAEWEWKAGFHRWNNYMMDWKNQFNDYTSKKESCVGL
Sequence of Amyloid-beta precursor protein (Homo sapiens) (P05067 whole entry): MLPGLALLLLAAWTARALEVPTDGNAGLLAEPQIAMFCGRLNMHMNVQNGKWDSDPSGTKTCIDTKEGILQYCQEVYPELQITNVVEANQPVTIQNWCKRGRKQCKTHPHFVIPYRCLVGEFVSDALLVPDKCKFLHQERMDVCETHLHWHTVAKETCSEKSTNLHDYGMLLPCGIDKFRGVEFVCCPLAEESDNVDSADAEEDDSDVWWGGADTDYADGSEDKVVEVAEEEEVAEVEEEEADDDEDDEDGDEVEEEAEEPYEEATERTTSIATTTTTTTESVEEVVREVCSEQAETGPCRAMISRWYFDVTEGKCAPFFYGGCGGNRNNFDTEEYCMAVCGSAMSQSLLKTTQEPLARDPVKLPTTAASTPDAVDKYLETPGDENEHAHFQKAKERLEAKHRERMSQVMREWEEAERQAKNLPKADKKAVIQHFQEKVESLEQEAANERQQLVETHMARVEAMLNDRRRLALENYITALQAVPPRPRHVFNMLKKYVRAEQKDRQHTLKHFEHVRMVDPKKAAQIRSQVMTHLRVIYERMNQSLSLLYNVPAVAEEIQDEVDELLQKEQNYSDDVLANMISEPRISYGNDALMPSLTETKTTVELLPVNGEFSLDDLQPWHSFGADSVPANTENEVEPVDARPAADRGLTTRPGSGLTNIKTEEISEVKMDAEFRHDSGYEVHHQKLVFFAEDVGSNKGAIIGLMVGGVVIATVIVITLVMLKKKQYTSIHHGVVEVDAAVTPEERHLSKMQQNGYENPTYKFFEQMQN

C#CCN1CCCC(CNS(=O)(=O)c2ccc3ccccc3c2)C1 (centres undefined)
IC50 [1]: > 100 µM | Ratio IC50 (Homo sapiens): 1 | inhibition [2]: < 10% | IC50 (Cholinesterase): 1.22 µM | IC50 (Acetylcholinesterase): > 100 µM | IC50 [3]: > 100 µM

C#CCN1CCCC(CN(CCOC)S(=O)(=O)c2ccc3ccccc3c2)C1 (centres undefined)
IC50 [1]: > 100 µM | Ratio IC50 (Homo sapiens): 1 | inhibition [2]: < 10% | IC50 (Cholinesterase): 0.137 µM | IC50 (Acetylcholinesterase): > 100 µM | IC50 [3]: > 100 µM

C#CCN1CCC(CN(CCOC)S(=O)(=O)c2ccc3ccccc3c2)CC1
IC50 [1]: > 100 µM | Ratio IC50 (Homo sapiens): 1 | inhibition [2]: < 10% | IC50 (Cholinesterase): 0.384 µM | IC50 (Acetylcholinesterase): > 100 µM | IC50 [3]: > 100 µM

CC(=O)[C@H]1CC[C@H]2[C@@H]3CCC4=CC(=O)CC[C@]4(C)[C@H]3CC[C@]12C [PROGESTERONE]
logPeff [4]: -4

C#CCN1CCC(CNS(=O)(=O)c2ccc3ccccc3c2)CC1
IC50 [1]: 53.9 µM | Ratio IC50 (Homo sapiens): > 1.86 | inhibition (INH) [5]: > 70% | TDI [6]: Active | inhibition [2]: < 10% | Activity [7]: Non-Toxic | CC50 at 48 h [8]: 242 µM | selectivity ratio (MAO-B): 4 | Activity (SH-SY5Y [9]): Active | IC50 (Cholinesterase): 2.6 µM | IC50 (Acetylcholinesterase): > 100 µM | selectivity ratio (BChE): 90 | IC50 [3]: > 100 µM

C#CCN1CCCC(CNC(=O)c2ccc3ccccc3c2)C1 (centres undefined)
IC50 [1]: 59.3 µM | Ratio IC50 (Homo sapiens): > 1.69 | inhibition [2]: < 10% | IC50 (Cholinesterase): 23.4 µM | IC50 (Acetylcholinesterase): > 100 µM | IC50 [3]: > 100 µM

C#CCN1CCC(CN(CCCOC)C(=O)c2ccc3ccccc3c2)CC1
IC50 [1]: > 100 µM | Ratio IC50 (Homo sapiens): 1 | inhibition [2]: < 10% | IC50 (Cholinesterase): 4.59 µM | IC50 (Acetylcholinesterase): > 100 µM | IC50 [3]: > 100 µM

C#CCN1CCCC(CN(CCOC)C(=O)c2ccc3ccccc3c2)C1 (centres undefined)
IC50 [1]: > 100 µM | Ratio IC50 (Homo sapiens): 1 | inhibition [2]: < 10% | IC50 (Cholinesterase): 3.31 µM | IC50 (Acetylcholinesterase): > 100 µM | IC50 [3]: > 100 µM

C#CCN1CCC(CN(CCCOC)S(=O)(=O)c2ccc3ccccc3c2)CC1
IC50 [1]: > 100 µM | Ratio IC50 (Homo sapiens): 1 | inhibition [2]: < 10% | IC50 (Cholinesterase): 0.281 µM | IC50 (Acetylcholinesterase): > 100 µM | IC50 [3]: > 100 µM

C#CCN1CCCC(CN(CCCOC)C(=O)c2ccc3ccccc3c2)C1 (centres undefined)
IC50 [1]: > 100 µM | Ratio IC50 (Homo sapiens): 1 | inhibition [2]: < 10% | IC50 (Cholinesterase): 8.64 µM | IC50 (Acetylcholinesterase): > 100 µM | IC50 [3]: > 100 µM

C#CCN1CCC(CNC(=O)c2ccc3ccccc3c2)CC1
IC50 [1]: 72.6 µM | Ratio IC50 (Homo sapiens): > 1.38 | inhibition [2]: < 10% | IC50 (Cholinesterase): 54.4 µM | IC50 (Acetylcholinesterase): > 100 µM | IC50 [3]: > 100 µM

C#CCN1CCCC(CN(CCCOC)S(=O)(=O)c2ccc3ccccc3c2)C1 (centres undefined)
IC50 [1]: > 100 µM | Ratio IC50 (Homo sapiens): 1 | inhibition [2]: < 10% | CC50 at 48 h [8]: 48.1 µM | Activity [10]: Non-Toxic | Activity (SH-SY5Y [11]): Active | IC50 (Cholinesterase): 0.127 µM | IC50 (Acetylcholinesterase): > 100 µM | selectivity ratio (BChE): 375 | IC50 [3]: > 100 µM

C#CCN1CCC(CN(CCOC)C(=O)c2ccc3ccccc3c2)CC1
IC50 [1]: > 100 µM | Ratio IC50 (Homo sapiens): 1 | inhibition [2]: 23.4% | IC50 (Cholinesterase): 4.04 µM | IC50 (Acetylcholinesterase): > 100 µM | IC50 [3]: > 100 µM
